Results from patent US20260337212A1, “IP4-4,6 SUBSTITUTED DERIVATIVE COMPOUNDS FOR USE IN THE TREATMENT, INHIBITION OF PROGRESSION, AND PREVENTION OF ECTOPIC CALCIFICATION” (SANIFIT THERAPEUTICS, S.A., priority 2022, published 2026).

What was measured:
[1] = Rat vitamin D3 model: blood perfusion of posterior limbs by laser doppler perfusion imaging; format: in vivo, Sprague Dawley rat; conditions: FIG. 13
Protocol: Statistical analysis: One-way ANOVA with Fisher's LSD test for post-hoc comparisons. The result of the ANOVA was p<0.0001. (#) indicates significant differences vs sham, (*) indicates significant differences vs vehicle, (§) indicates significant differences vs Compound 27 5 mg/kg (only applies to other Compound 27 doses), p<0.05. N=10-12 animals/group.
The model evaluated the effects of Compound 27 on tissue calcification, blood perfusion, and walking ability in rats for a duration of 13 days. Tissue calcification was induced in groups 2-5 from D1 to D3. Animals induced with calcification were administered placebo or active agent formulations from D1 onwards to assess their effects in preventing calcification. The impact of treatment on tissue calcification, blood perfusion, and walking ability was evaluated. Observations were taken at several points during the treatment from D0 to D13. All animals were weighed every day before treatment. […]
Blood perfusion (BP) was evaluated by laser doppler perfusion imaging applied to the posterior limbs of the animals using a PeriCam PSI Normal Resolution analyzer (Perimed A B, Järfälla, S E). […] The perfusion ratio (i.e., mean of the two legs) was calculated by comparing the baseline and either D4 or D13 readings for each group. In addition, the perfusion ratio was calculated by comparing group 1 and groups 2-5.

[2] = Rat vitamin D3 model: tissue calcium content (ICP-OES); format: in vivo, Sprague Dawley rat; conditions: 5, 15, 45 mg/kg s.c. daily D1-D13
Protocol: FIG. 12 represents the mean calcium content (±SD) in Sham rats (no VitD3 treatment) and rats treated with vehicle or Compound 27 (5, 15, and 45 mg/kg) in (A) aorta, (B) heart, (C) femoral artery, (D) carotid arteries, and (E) kidney. For femoral and carotid arteries, the mean of the calcium content in left and right vessels was used. Statistical analysis: One-way ANOVA with Fisher's LSD test for post-hoc comparisons. (#) indicates significant differences vs. sham, (*) indicates significant differences vs vehicle, (§) indicates significant differences vs Compound 27 5 mg/kg (only applies to other Compound 27 doses), (¥) indicates significant differences vs Compound 27 15 mg/kg (only applies to Compound 27 45 mg/kg), p<0.05. N=7-12 animals/group.
The model evaluated the effects of Compound 27 on tissue calcification, blood perfusion, and walking ability in rats for a duration of 13 days. Tissue calcification was induced in groups 2-5 from D1 to D3. Animals induced with calcification were administered placebo or active agent formulations from D1 onwards to assess their effects in preventing calcification. The impact of treatment on tissue calcification, blood perfusion, and walking ability was evaluated. Observations were taken at several points during the treatment from D0 to D13. All animals were weighed every day before treatment.
Fifty-eight male Sprague Dawley (SD) rats (Envigo Corp., Huntingdon, GB) weighing approximately 275-300 g were used. The animals were fed with a standard LASQCdiet® Rod14-H4 diet (LASvendi, Soest, DE). The animals were divided in 5 groups, 10 to 12 animals per group, as follows: • Group 1—Control (sham), 10 animals • Group 2—Physiological saline solution (placebo) daily, 12 animals • Group 3—Compound 27, 5 mg/kg daily, 12 animals • Group 4—Compound 27, 15 mg/kg daily, 12 animals • Group 5—Compound 27, 45 mg/kg daily, 12 animals
Calcification was induced in the animals of groups 2-5 by subcutaneous administration of 120,000 IU/kg vitamin D3 (cholecalciferol, Duphafral D3 1000; Zoetis Inc., Parsippany, NJ, US) in physiological saline 0.9% (w/v) NaCl solution (2 mL/kg) daily from D1 to D3. Animals in group 1 were administered 2 mL/kg of physiological saline solution daily from D1 to D3 via subcutaneous route with no vitamin D3. Animals in group 2 were administered 2 mL/kg of physiological saline solution daily from D1 to D13 via subcutaneous route. Animals in groups 3, 4, and 5 were administered 5 mg/kg, 15 mg/kg, and 45 mg/kg, respectively, of Compound 27 (754.45 g/mol free acid) daily in physiological saline solution (2 mL/kg) from D1 to D13 via subcutaneous route.
All the living animals of groups 1-5 were sacrificed in D13 for determining their Ca values in tissue (i.e., aorta, carotids, femoral, heart, kidney).
The animals were exsanguinated before sacrifice. Their necropsies were performed, and their whole right and left femoral arteries, left and right carotids, aorta, heart, and right kidney were collected for calcium content measurement. The tissues were lyophilized for 24 h and weighed. The lyophilized tissues were then digested using a 1:1 HNO3:HClO4 mixture in a dry bath incubator for 2-4 h at 180° C. The digested tissues were subsequently diluted using ultra-pure Milli-Q water (MilliporeSigma, Merck KGaA, Burlington, MA, US) to a final volume of 5 mL (for femoral and carotid) or 10 mL (for heart, kidney and aorta). Calcium content was quantified via inductively coupled plasma optical emission spectrometry (ICP-OES) using an Optima 7300 DV ICP-OES System spectrometer (PerkinElmer, Inc., Waltham, MA, US) according to the manufacturer's instructions.

4,6-O-bis(5-acetamidopentyl)-myo-inositol-1,2,3,5-tetrakis(phosphate) octasodium salt [Compound 27]
Effect on blood perfusion ([1]; 5, 15, 45 mg/kg s.c. daily, D13): dose-response effect from 5 mg/kg | Recovery of posterior limb blood perfusion ([1]; 15 and 45 mg/kg s.c. daily): recovery of posterior limb blood perfusion at doses of 15 and 45 mg/kg | Inhibition of ectopic calcification in all evaluated tissues ([2]; aorta, carotids, femoral, heart, kidney): inhibits ectopic calcification in all the evaluated tissues | Inhibition of calcification in aorta ([2]; aorta, FIG. 12A): observed at 45 mg/kg | Inhibition of calcification in the carotids ([2]; carotids, FIG. 12D): observed at 45 mg/kg | Inhibition of calcification in the femoral arteries ([2]; femoral arteries, FIG. 12C): dose-response effect from 5 mg/kg | Inhibition of calcification in the heart ([2]; heart, FIG. 12B): dose-response effect from 5 mg/kg | Inhibition of calcification in the kidneys ([2]; kidney, FIG. 12E): dose-response effect from 5 mg/kg
